According to US12522594B2, “2-heteroaryl-3-oxo-2,3-dihydropyridazine-4-carboxamides for the treatment of cancer” (Deutsches Krebsforschungszentrum, priority 2017, dated 2026):

Assays:
AHR [1] = biological target: T1, AHR (Homo sapiens, UniProt P35869); test: In vitro assay 1: antagonism in human cell line (transactivation assay, U87 cells prestimulated with kynurenic acid, DRE firefly luciferase reporter); assay type: cell-based; set-up: host or cells: U87 glioblastoma cells, stably transfected with DRE firefly luciferase and renilla reporter constructs; conditions: 150 uM kynurenic acid, 20 hours, read-out: Assay 1: AHR-luc Hum Antagonism IC50
T1 sequence (P35869 11-848): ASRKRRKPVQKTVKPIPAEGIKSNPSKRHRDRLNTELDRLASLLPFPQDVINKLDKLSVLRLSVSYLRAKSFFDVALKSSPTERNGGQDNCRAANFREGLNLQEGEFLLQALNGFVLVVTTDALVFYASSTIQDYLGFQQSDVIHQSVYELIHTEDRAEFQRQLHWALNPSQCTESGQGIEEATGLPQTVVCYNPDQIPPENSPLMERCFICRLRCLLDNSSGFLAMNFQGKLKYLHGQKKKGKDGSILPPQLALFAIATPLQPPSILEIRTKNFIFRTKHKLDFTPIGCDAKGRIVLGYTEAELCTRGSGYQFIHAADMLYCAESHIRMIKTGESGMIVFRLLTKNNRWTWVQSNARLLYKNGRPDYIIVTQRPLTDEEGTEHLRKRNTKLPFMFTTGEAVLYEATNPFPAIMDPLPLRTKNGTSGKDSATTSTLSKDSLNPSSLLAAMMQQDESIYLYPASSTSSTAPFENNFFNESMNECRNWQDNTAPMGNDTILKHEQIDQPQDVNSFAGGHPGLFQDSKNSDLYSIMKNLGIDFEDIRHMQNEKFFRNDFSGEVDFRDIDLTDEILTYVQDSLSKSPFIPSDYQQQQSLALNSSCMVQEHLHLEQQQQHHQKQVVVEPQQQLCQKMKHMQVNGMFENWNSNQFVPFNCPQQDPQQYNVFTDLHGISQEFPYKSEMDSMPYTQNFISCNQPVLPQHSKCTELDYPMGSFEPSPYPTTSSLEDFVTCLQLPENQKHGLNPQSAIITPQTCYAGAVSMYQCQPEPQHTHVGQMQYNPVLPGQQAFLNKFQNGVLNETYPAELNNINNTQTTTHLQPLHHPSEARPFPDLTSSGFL
Procedure, shortened: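 Antagonism measured after kynurenic acid prestimulation in U87 cells that express AHR endogenously and stably harbor a firefly luciferase gene under DRE control plus a constitutive renilla construct. Positive and negative controls served for normalization.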

AHR [2] = biological target: T1, AHR; test: In vitro assay 2: agonism in human cell line (transactivation assay, U87 cells, DRE firefly luciferase reporter); assay type: cell-based; set-up: host or cells: U87 glioblastoma cells, stably transfected with DRE firefly luciferase and renilla reporter constructs; conditions: no kynurenic acid, 20 hours, read-out: Assay 2: AHR-luc Hum Agonism IC50
Procedure, shortened: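 Agonist readout: DRE firefly luciferase, with constitutive renilla reporter, in stably transfected U87 cells expressing AHR endogenously. Normalization used positive control (300 uM kynurenic acid) and negative control.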

SMILES	IC50 (AHR [1]) [nM]	IC50 (AHR [2]) [nM]
O=C(N[C@H](CO)C(F)(F)F)c1cc(-c2ccc(C(F)F)cc2)nn(-c2cccnc2)c1=O [Example 127, 6-[4-(Difluoromethyl)phenyl]-3-oxo-2-(pyridin-3-yl)-N-[(2R)-1,1,1-trifluoro-3-hydroxypropan-2-yl]-2,3-dihydropyridazine-4-carboxamide]	4.17	> 20000
O=C(NC[C@H](O)C(F)(F)F)c1cc(-c2ccc(Cl)cc2)nn(-c2cncc(F)c2)c1=O [Example 128, 6-(4-Chlorophenyl)-2-(5-fluoropyridin-3-yl)-3-oxo-N-[(2S)-3,3,3-trifluoro-2-hydroxypropyl]-2,3-dihydropyridazine-4-carboxamide]	5.05	> 20000
O=C(N[C@H]1CCC[C@H]1O)c1cc(-c2ccc(Cl)cc2)nn(-c2cncc(F)c2)c1=O [Example 129, 6-(4-Chlorophenyl)-2-(5-fluoropyridin-3-yl)-N-[(1S,2R)-2-hydroxycyclopentyl]-3-oxo-2,3-dihydropyridazine-4-carboxamide]	5.53	> 20000
O=C(N[C@H]1CCC[C@@H]1O)c1cc(-c2ccc(OC(F)(F)F)cc2)nn(-c2cccnc2)c1=O [Example 132, N-[(1S,2S)-2-Hydroxycyclopentyl]-3-oxo-2-(pyridin-3-yl)-6-[4-(trifluoromethoxy)phenyl]-2,3-dihydropyridazine-4-carboxamide]	6.88	> 20000
CC(C)(O)C(NC(=O)c1cc(-c2ccc(OC(F)(F)F)cc2)nn(-c2cccnc2)c1=O)C(F)(F)F (centres unmarked) [Example 135, 3-Oxo-2-(pyridin-3-yl)-N-[1,1,1-trifluoro-3-hydroxy-3-methylbutan-2-yl]-6-[4-(trifluoromethoxy)phenyl]-2,3-dihydropyridazine-4-carboxamide]	7.91	> 20000
O=C(NCC(O)C(F)(F)F)c1cc(-c2ccc(OC(F)(F)F)cc2)nn(-c2cccnc2)c1=O (centres unmarked) [Example 146, 3-Oxo-2-(pyridin-3-yl)-N-[3,3,3-trifluoro-2-hydroxypropyl]-6-[4-(trifluoromethoxy)phenyl]-2,3-dihydropyridazine-4-carboxamide]	10.3	> 20000
O=C(N[C@H](CO)C1CC1)c1cc(-c2ccc(C(F)F)cc2)nn(-c2cccnc2)c1=O [Example 150, N-[(1S)-1-Cyclopropyl-2-hydroxyethyl]-6-[4-(difluoromethyl)phenyl]-3-oxo-2-(pyridin-3-yl)-2,3-dihydropyridazine-4-carboxamide]	19.9	> 20000
C[C@@H](CO)NC(=O)c1cc(-c2ccc(C(F)F)cc2)nn(-c2cccnc2)c1=O [Example 151, 6-[4-(Difluoromethyl)phenyl]-N-[(2S)-1-hydroxypropan-2-yl]-3-oxo-2-(pyridin-3-yl)-2,3-dihydropyridazine-4-carboxamide]	21.1	> 20000
C[C@@H](CO)NC(=O)c1cc(-c2ccc(Cl)cc2F)nn(-c2cccnc2)c1=O [Example 163, 6-(4-Chloro-2-fluorophenyl)-N-[(2S)-1-hydroxypropan-2-yl]-3-oxo-2-(pyridin-3-yl)-2,3-dihydropyridazine-4-carboxamide]	134	> 20000
O=C(N[C@H]1CCCC[C@H]1O)c1cc(-c2ccc(Cl)cc2)nn(-c2ccnnc2)c1=O [Example 164, 3-(4-Chlorophenyl)-N-[(1S,2R)-2-hydroxycyclohexyl]-6-oxo-6H-1,4′-bipyridazine-5-carboxamide]	157	> 20000
O=C(N[C@H]1CCC[C@@H]1O)c1cc(-c2ccc(C(F)F)nc2)nn(-c2cccnc2)c1=O [Example 165, 6-[6-(Difluoromethyl)pyridin-3-yl]-N-[(1S,2S)-2-hydroxycyclopentyl]-3-oxo-2-(pyridin-3-yl)-2,3-dihydropyridazine-4-carboxamide]	209	> 20000
O=C(N[C@H]1CCC[C@H]1O)c1cc(-c2ccc(Cl)cc2)nn(-c2ccnnc2)c1=O [Example 167, 3-(4-Chlorophenyl)-N-[(1S,2R)-2-hydroxycyclopentyl]-6-oxo-6H-1,4′-bipyridazine-5-carboxamide]	239	> 20000
O=C(N[C@H]1CCC[C@@H]1O)c1cc(-c2ccc(Cl)cc2)nn(-c2ccnnc2)c1=O [Example 174, 3-(4-Chlorophenyl)-N-[(1S,2S)-2-hydroxycyclopentyl]-6-oxo-6H-1,4′-bipyridazine-5-carboxamide]	61.5	> 20000
C[C@@H](CO)NC(=O)c1cc(-c2ccc(Cl)cc2)nn(-c2ccnnc2)c1=O [Example 177, 3-(4-Chlorophenyl)-N-[(2S)-1-hydroxypropan-2-yl]-6-oxo-6H-1,4′-bipyridazine-5-carboxamide]	465	> 20000
CC(C)(O)CNC(=O)c1cc(-c2ccc(Cl)cc2)nn(-c2ccnnc2)c1=O [Example 178, 3-(4-Chlorophenyl)-N-(2-hydroxy-2-methylpropyl)-6-oxo-6H-1,4′-bipyridazine-5-carboxamide]	594	> 20000
C[C@@H](CO)NC(=O)c1cc(-c2ccc(C#N)cc2)nn(-c2cccnc2)c1=O [Example 179, 6-(4-Cyanophenyl)-N-[(2S)-1-hydroxypropan-2-yl]-3-oxo-2-(pyridin-3-yl)-2,3-dihydropyridazine-4-carboxamide]	736	> 20000
C[C@@H](CO)NC(=O)c1cc(-c2ccc(C(F)F)nc2)nn(-c2cccnc2)c1=O [Example 180, 6-[6-(Difluoromethyl)pyridin-3-yl]-N-[(2S)-1-hydroxypropan-2-yl]-3-oxo-2-(pyridin-3-yl)-2,3-dihydropyridazine-4-carboxamide]	794	> 20000
CC(C)(O)C(NC(=O)c1cc(-c2ccc(Cl)cc2)nn(-c2cncnc2)c1=O)C(F)(F)F (centres unmarked) [Example 185, 6-(4-Chlorophenyl)-3-oxo-2-(pyrimidin-5-yl)-N-(1,1,1-trifluoro-3-hydroxy-3-methylbutan-2-yl)-2,3-dihydropyridazine-4-carboxamide]	37.1	> 20000
O=C(NCC1(O)CC1)c1cc(-c2ccc(C(F)(F)F)cc2)nn(-c2cccnc2)c1=O [Example 188, N-[(1-Hydroxycyclopropyl)methyl]-3-oxo-2-(pyridin-3-yl)-6-[4-(trifluoromethyl)phenyl]-2,3-dihydropyridazine-4-carboxamide]	12.5	> 20000
O=C(NCC1(O)CCC1)c1cc(-c2ccc(C(F)(F)F)cc2)nn(-c2cccnc2)c1=O [Example 189, N-[(1-Hydroxycyclobutyl)methyl]-3-oxo-2-(pyridin-3-yl)-6-[4-(trifluoromethyl)phenyl]-2,3-dihydropyridazine-4-carboxamide]	3.03	> 20000
C[C@@H](CO)NC(=O)c1cc(-c2ccc(Cl)cc2)nn(-c2cn[nH]c2)c1=O [Example 190, (+)-6-(4-Chlorophenyl)-N-[(2S)-1-hydroxypropan-2-yl]-3-oxo-2-(1H-pyrazol-4-yl)-2,3-dihydropyridazine-4-carboxamide]	65.6	> 20000
C[C@@H](CO)NC(=O)c1cc(-c2ccc(N(C)C)cc2)nn(-c2cccnc2)c1=O [Example 191, 6-[4-(Dimethylamino)phenyl]-N-[(2S)-1-hydroxypropan-2-yl]-3-oxo-2-(pyridin-3-yl)-2,3-dihydropyridazine-4-carboxamide]	3.35	> 20000
